For orientation: MIC means the lowest concentration found to suppress growth.

≈ marks a conversion by molar mass, not a printed value. Read-outs that look alike come from different tables or passages of the source. Some results are limits rather than exact numbers.

Type in all cases: cell-based
Assay [1] deals with Desulfovibrio desulfuricans IFO 13699. The assay can be described thus: MIC against Desulfovibrio desulfuricans. The text has this: (§1) Below are described the antibacterial activities of the compounds in the compositions according to this invention.
(§2) The testing method complied with the standard method of Japan Sociaty of Chemotherapy.

The subject of assay [2] is Escherichia coli NIHJ. The assay is described as follows: MIC against Escherichia coli NIHJ.
Excerpt: as §1, §2

Assay [3] relates to Staphylococcus aureus FDA 209P. The assay can be described thus: MIC against Staphylococcus aureus FDA 209P.
Excerpt: as §1, §2

The mark [4] stands for this setting: Desulfovibrio desulfuricans, IFO13699, Table 1, azaalkenelactams, heart infusion agar, 37° C., 24 hours, read-out: MIC.
The mark [5] stands for this setting: Staphylococcus aureus, FDA209P, 24 h.
Setting [6] is: Desulfovibrio desulfuricans, IFO13699, 24 h.
Where [7] appears, read: Table 2, derivatives having a carboxylate radical, heart infusion agar, 37° C., 24 hours.
Setting [8] is: Escherichia coli, Table 2, derivatives having a carboxylate radical, heart infusion agar, 37° C., 24 hours, read-out: MIC.
Setting [9] is: Escherichia coli, Table 1, azaalkenelactams, heart infusion agar, 37° C., 24 hours, read-out: MIC.
Where [10] appears, read: Staphylococcus aureus, FDA209P, Table 1, azaalkenelactams, heart infusion agar, 37° C., 24 hours, read-out: MIC.
Setting [11] is: Staphylococcus aureus, FDA209P, Table 2, derivatives having a carboxylate radical, heart infusion agar, 37° C., 24 hours, read-out: MIC.
The mark [12] stands for this setting: Desulfovibrio desulfuricans, IFO13699, Table 2, derivatives having a carboxylate radical, heart infusion agar, 37° C., 24 hours, read-out: MIC.
[13] abbreviates: Table 1, azaalkenelactams, heart infusion agar, 37° C., 24 hours.

For the compound `CCCCCCCCCCCCCCCCCCCCC(O)CNCCNCCN1CCCN=C(C)CC1=O` (stereo not drawn) [Example 30, 1-(2-hydroxy)docosylaminoethylaminoethyl-4-methyl-3,6,7,8-tetrahydro-1,5-diazocin-2-one], the MIC in assay [1] (setting [4]) was 3.12 µg/mL (≈ 5.66 µM); in assay [2] (Escherichia coli, 24 h), 25 µg/mL (≈ 45.4 µM); in assay [3] (setting [5]), 12.5 µg/mL (≈ 22.7 µM).

Regarding `CCCCCCCCCCC(O)CN1CCN=C(C)CC1=O` (stereo not drawn) [Example 26, 4-(2-hydroxy)dodecyl-7-methyl-3,6-dihydro-2H-1,4-diazepin-5-one], the MIC is 12.5 µg/mL (≈ 40.3 µM) in assay [1] (setting [6]); 50 µg/mL (≈ 161 µM) in assay [2] (Escherichia coli, 24 h); 50 µg/mL (≈ 161 µM) in assay [3] (setting [5]).

In the case of “4-methylbenzylpoly(2 moles)oxypropyleneoxypropyl-6-methyl-4-aza-1-azoniacyclooct-8-en-5-one-1-acetate”, the values for the MIC in assay [1], in assay [2] (setting [7]) and in assay [3] were 25 µg/mL, 800 µg/mL and 400 µg/mL, respectively.

On to `CCCCCCC(O)CC=CCCCCCCCC(=O)OC(C)CN1CCC[N+](CC(=O)[O-])=C(C)CC1=O` (stereo not drawn), for which the MIC in assay [1] (setting [6]) was determined as 25 µg/mL (≈ 46.6 µM); in assay [2] (setting [8]) it was 1600 µg/mL (≈ 2980 µM); in assay [3] (setting [5]), 50 µg/mL (≈ 93.2 µM).

Turning to `CCCCCCCCCc1ccc(OCC(O)CNCCNCCNCCN2CC[N+](CC(=O)[O-])=CC(C)C2=O)cc1` (stereo not drawn) [4-nonylphenoxy(2-hydroxy)propylaminoethylaminoethylaminoethyl-6-methyl-1-azonia-4-azacyclohept-7-en-5-one-1-acetate], the MIC in assay [1] (setting [6]) is 50 µg/mL (≈ 84.8 µM); in assay [2] (Escherichia coli, 24 h) it was 400 µg/mL (≈ 678 µM); in assay [3] (setting [5]) it was 200 µg/mL (≈ 339 µM).

For the compound `CCCCCCCCCCCCCCNCCN1CCC[N+](C(C)C(=O)[O-])=CC(C)(C)C1=O` (stereo not drawn) [1-tetradecylaminoethyl-3,3-dimethyl-1-aza-5-azoniacyclooct-4-en-2-one-5-propionate], the MIC is 6.25 µg/mL (≈ 13.4 µM) in assay [1] (setting [6]); 100 µg/mL (≈ 215 µM) in assay [2] (Escherichia coli, 24 h); 12.5 µg/mL (≈ 26.8 µM) in assay [3] (setting [5]).

`CCCCCCCCCCCCNC(=O)CCC` [Laurylbutylamide, reference compound]: the figures for the MIC in assay [1] (setting [6]), in assay [2] (setting [9]) and in assay [3] (setting [10]) were 400 µg/mL (≈ 1570 µM), no less than 10000 µg/mL and no less than 10000 µg/mL, respectively.

Take `CCCCCCCCCCCCN1CCN=C(C)CC1=O` [Example 1, 4-dodecyl-7-methyl-3,6-dihydro-2H-1,4-diazepin-5-one]: the MIC in assay [1] (setting [6]) stood at 6.25 µg/mL (≈ 21.2 µM); in assay [2] (setting [9]), 1600 µg/mL (≈ 5430 µM); in assay [3] (setting [10]) it was 50 µg/mL (≈ 170 µM).

Consider `CCCCCCCCCCCCCCNCCN1CC[N+](CC(=O)[O-])=CCCC1=O` [4-tetradecylaminoethyl-4-aza-1-azoniacyclooct-8-en-5-one-1-acetate], for which the MIC in assay [1] (setting [6]) amounted to 6.25 µg/mL (≈ 14.8 µM); in assay [2] (Escherichia coli, 24 h), 100 µg/mL (≈ 236 µM); in assay [3] (setting [11]), 3.12 µg/mL (≈ 7.36 µM).

With “4-octoxy(2-hydroxy)propyl-7-methyl-1-azonia-4-azacyclohept-7-en-5-one-1-acetate”, the MIC in assay [1] came out at 25 µg/mL; in assay [2] (setting [7]), 800 µg/mL; in assay [3], 100 µg/mL.

As for `CCCCCCCCCCCC(=O)OCCN1CCN=CC(C)C1=O` (stereo not drawn) [Example 47, 4-lauroyloxyethyl-6-methyl-3,6-dihydro-2H-1,4-diazepin-5-one], the MIC in assay [1] (setting [4]) turned out to be 50 µg/mL (≈ 142 µM); in assay [2] (setting [9]), 200 µg/mL (≈ 567 µM); in assay [3] (setting [10]), 50 µg/mL (≈ 142 µM).

In the case of `CCCCCCCCCCCCOCCNCCN1CCN=C(C)CC1=O` [Example 6, 4-dodecoxyethylaminoethyl-7-methyl-3,6-dihydro-2H-1,4-diazepin-5-one], the MIC in assay [1] (setting [6]) turned out to be 25 µg/mL (≈ 65.5 µM); in assay [2] (Escherichia coli, 24 h), 50 µg/mL (≈ 131 µM); in assay [3] (setting [5]) it was 12.5 µg/mL (≈ 32.8 µM).

As for `CCCCCCCCCCCCCCCCCCCCCC(=O)OCCN1CCN=CCCC1=O` [Example 57, 4-behenoyloxyethyl-2,3,6,7-tetrahydro-1,4-diazocin-5-one], the MIC in assay [1] (setting [6]) was 12.5 µg/mL (≈ 25.4 µM); in assay [2] (Escherichia coli, 24 h), 100 µg/mL (≈ 203 µM); in assay [3] (setting [5]) it was 100 µg/mL (≈ 203 µM).

On to `CCCCCCCCCCCC[N+](C)(C)CC(=O)[O-]` [Lauryldimethylbetaine, lauryldimethylbetaine, reference compound], for which the values for the MIC in assay [1] (setting [12]), in assay [2] (setting [8]) and in assay [3] (setting [11]) were 1600 µg/mL (≈ 5890 µM), no less than 10000 µg/mL and no less than 10000 µg/mL, respectively.

Regarding `CCCCCCCC(=O)NCCN1CC[N+](CC(=O)[O-])=C(C)CC1=O` [4-octamidoethyl-7-methyl-1-azonia-4-azacyclohept-7-en-5-one-1-acetate], the MIC is 50 µg/mL (≈ 141 µM) in assay [1] (setting [6]); 100 µg/mL (≈ 283 µM) in assay [2] (Escherichia coli, 24 h); 800 µg/mL (≈ 2260 µM) in assay [3] (setting [11]).

For `CCCCCCCCCc1ccc(OCC(O)CNCCNCCNCCN2CC[N+](CC(=O)[O-])=C(C)CC2=O)cc1` (stereo not drawn) [4-nonylphenoxy(2-hydroxy)propylaminoethylaminoethylaminoethyl-7-methyl-1-azonia-4-azacyclohept-7-en-5-one-1-acetate], the MIC in assay [1] (setting [6]) was 50 µg/mL (≈ 84.8 µM); in assay [2] (setting [8]), 800 µg/mL (≈ 1360 µM); in assay [3] (setting [5]), 100 µg/mL (≈ 170 µM).

As to `CCCCCCCCCCCCCCCCCCCCC(O)CNCCNCCN1CCC[N+](CC(=O)[O-])=C(C)CC1=O` (stereo not drawn) [1-(2-hydroxy)docosylaminoethylaminoethyl-4-methyl-1-aza-5-azoniacyclooct-4-en-2-one-5-acetate], the MIC in assay [1] (setting [6]) was 6.25 µg/mL (≈ 10.3 µM); in assay [2] (Escherichia coli, 24 h), 50 µg/mL (≈ 82.1 µM); in assay [3] (setting [5]), 25 µg/mL (≈ 41.1 µM).

As for `CCCCCCCCCc1ccc(OCC(O)CNCCNCCNCCN2CCN=CC(C)C2=O)cc1` (stereo not drawn) [Example 52, 4-nonylphenoxy(2-hydroxy)propylaminoethylaminoethylaminoethyl-6-methyl-3,6-dihydro-2H-1,4-diazepin-5-one], the MIC worked out at 50 µg/mL (≈ 94 µM) in assay [1] (setting [6]), 100 µg/mL (≈ 188 µM) in assay [2] (setting [9]) and 100 µg/mL (≈ 188 µM) in assay [3] (setting [10]).

On to `CCCCCCCCCCCCCCC(O)CNCCN1CC[N+](CC(=O)[O-])=C(C)CC1=O` (stereo not drawn) [4-(2-hydroxyhexadecyl)aminoethyl-7-methyl-1-azonia-4-azacyclohept-7-en-5-one-1-acetate], for which the MIC came out at 3.12 µg/mL (≈ 6.67 µM) in assay [1] (setting [12]); 50 µg/mL (≈ 107 µM) in assay [2] (Escherichia coli, 24 h); 25 µg/mL (≈ 53.5 µM) in assay [3] (setting [5]).

In the case of `CCCCCCCCc1ccc(OCCOC(C)COC(C)CN2CC[N+](CC(=O)[O-])=C(C)CC2=O)cc1` (stereo not drawn), the results for the MIC in assay [1] (setting [6]), in assay [2] (setting [8]) and in assay [3] (setting [5]) were 50 µg/mL (≈ 93.9 µM), 800 µg/mL (≈ 1500 µM) and 50 µg/mL (≈ 93.9 µM), respectively.

`CCCCCC[C@@H](O)C/C=C\CCCCCCCC(=O)NCCN1CC[N+](CC(=O)[O-])=CC(C)(C)C1=O` [4-ricinolamidoethyl-6,6-dimethyl-1-azonia-4-azacyclohept-7-en-5-one-1-acetate]: the MIC in assay [1] (setting [6]) is 50 µg/mL (≈ 95.8 µM); in assay [2] (setting [8]) it was 1600 µg/mL (≈ 3070 µM); in assay [3] (setting [5]), 400 µg/mL (≈ 767 µM).

As for `CCCCCCCCC=CCCCCCCCCN1CC[N+](CC(=O)[O-])=CCCC1=O` [4-(9-octadecenyl)-4-aza-1-azoniacyclooct-8-en-5-one-1-acetate], the MIC in assay [1] (setting [6]) amounted to 50 µg/mL (≈ 115 µM); in assay [2] (Escherichia coli, 24 h), 400 µg/mL (≈ 920 µM); in assay [3] (setting [5]) it was 200 µg/mL (≈ 460 µM).

With `CCCCCCCCCCC(O)CN1CCCN=CC(C)C1=O` (stereo not drawn) [Example 45, 1-(2-hydroxy)dodecyl-3-methyl-3,6,7,8-tetrahydro-1,5-diazocin-2-one], the results for the MIC in assay [1] (setting [13]), in assay [2] (setting [13]) and in assay [3] (setting [13]) were 50 µg/mL (≈ 154 µM), 800 µg/mL (≈ 2470 µM) and 100 µg/mL (≈ 308 µM), respectively.

For the compound `CCCCCCCCCCCCOCC(O)CN1CCC[N+](C(C)C(=O)[O-])=C(C)CC1=O` (stereo not drawn) [1-docoxy(2-hydroxy)propyl-4-methyl-1-aza-5-azoniacyclooct-4-en-2-one-5-propionate], the MIC in assay [1] (setting [6]) worked out at 12.5 µg/mL (≈ 27.5 µM); in assay [2] (setting [8]), 800 µg/mL (≈ 1760 µM); in assay [3] (setting [5]), 25 µg/mL (≈ 55 µM).

For the compound `CCCCCCCCCCCCCCCCCCCCCCNCCN1CCN=C(C)CC1=O` [Example 22, 4-docosylaminoethyl-7-methyl-3,6-dihydro-2H-1,4-diazepin-5-one], the values for the MIC in assay [1] (setting [6]), in assay [2] (setting [9]) and in assay [3] (setting [5]) were 12.5 µg/mL (≈ 26.2 µM), 800 µg/mL (≈ 1670 µM) and 25 µg/mL (≈ 52.3 µM), respectively.

(Values after US4346087A, “Antibacterial surface active agent containing azaalkenelactam” (priority 1979, dated 1982).)
